Measured values: US9932328B2, “3-(6-alkoxy-5-chlorobenzo[d]isoxazol-3-yl)propanoic acid useful as kynurenine monooxygenase inhibitors” (GlaxoSmithKline Intellectual Property Development Limited, priority 2014, dated 2018)
Values joined by “and” are separate entries in the source; they are usually repeats but may differ in a detail not shown here. Equal entries are not always repeated.

target: T1, human KMO (Homo sapiens, UniProt O15229); assay: KMO MS Rapidfire functional assay (RapidFire high-throughput mass spectrometry, Method 1 or Method 2); assay type: biochemical; settings: in at least one of the MS Rapidfire assays (Method 1 or 2); isolated human KMO-membranes, 10 μM Kynurenine, 200 μM NADPH; values exemplary only
T1 construct: Full length human KMO was amplified by PCR; made in house; host or cells: Spodoptera frugiperda (Sf9) cells, baculovirus; used as purified membranes
Description: KMO inhibition can be determined by MS Rapidfire assay performed on the human cloned enzyme as described herein.
L-Kynurenine (Kyn), 3-hydroxy-DL-kynurenine (3-HK), β-Nicotinamide adenine dinucleotide 2′-phosphate reduced tetrasodium salt hydrate (NADPH), 4-(2-hydroxyethyl)piperazine-1-ethanesulfonic acid (Hepes), DL-dithiothreitol (DTT), ethylenediaminetetraacetic acid (EDTA), CHAPS and trifluoroacetic acid (TFA) were purchased from Sigma-Aldrich Ltd. (Gillingham, Dorset, UK). HPLC-grade acetonitrile and formic acid were supplied by Fisher Scientific (Loughborough, UK).
Full length human KMO was amplified by PCR from pcDNA5/FRT/V5-His-TOPO/hKMO (vector supplied by the University of Edinburgh) and cloned into pGEX6P-1 (GE Healthcare) using BamH1 and Sal1 restriction sites. DNA encoding the N-terminal glutathione-S-transferase (GST) tag, followed by a Pre-Scission protease cleavage site, and the full length KMO was amplified by PCR from pGEX6P-1-KMO and cloned into pFastbac1 (Invitrogen) using Xbal and EcoR1 restriction sites.
pFastbac1 GST-KMO was transposed into the baculovirus genome using the BAC-to-BAC technology (Invitrogen) and bacmid DNA was prepared and transfected into Spodoptera frugiperda (Sf9) cells using Cellfectin II (Invitrogen).
A P1 virus stock was generated from a single clone and used to infect 3× 1.5 L cultures of Sf9 cells in 3 L Corning Fernbach flasks. […] Cells were harvested after 48 hours and disrupted by blending in 50 mM Hepes, pH 7.4, 1 mM EDTA buffer containing protease inhibitors. A low speed spin (400 g) was used to remove cell debris, followed by a high speed spin (75 000 g) to pellet the membranes. The membranes were purified in a discontinuous sucrose density gradient by re-suspending in 10% (w/v) sucrose and layering over 40% (w/v) sucrose, both in the above buffer. This was centrifuged at 150 000 g and the purified membranes were taken from the interface, collected by centrifugation at 100 000 g, resuspended in buffer and aliquoted for storage at −80° C.
11 point, 3-fold serial dilutions of test compounds were prepared in DMSO and 100 nL of these solutions were dispensed into 384-well V-base polypropylene plates (Greiner Bio-one, Stonehouse, UK) using an Echo 555 acoustic dispenser (Labcyte, Sunnyvale, Calif.). This gave a final assay concentration range between 100 μM and 1.7 nM in 10 μL final assay volume (see below). 100 nL DMSO was dispensed into columns 6 and 18 for high and low controls, respectively, with prior inactivation of the enzyme in column 18 by pre-dispense of 30 μL of 0.5% (v/v) TFA.
Conditions for the assay of human KMO using isolated KMO-membranes were 50 mM Hepes, pH 7.5, 2 mM DTT, 1 mM EDTA, 100 μM CHAPS, 200 μM NADPH, 10 μM Kynurenine and 8 μg/ml KMO-membranes in a total reaction volume of 10 μL.
Assays were performed by initially dispensing 5 μL of a 2× Enzyme solution (16 μg/ml KMO-membranes in 50 mM Hepes, pH 7.5, 2 mM DTT, 2 mM EDTA, 200 μM CHAPS) into plates containing 100 nL compounds and incubating for 10 min at ambient temperature. Reactions were initiated by addition of 5 μL of 2× Substrate solution (400 μM NADPH, 20 μM Kynurenine in 50 mM Hepes, pH 7.5, 2 mM DTT) and incubated for 2 h at room temperature before quenching the reaction with 30 μL of 0.5% (v/v) TFA. Plates were centrifuged at 2500 rpm for 10 min before analysis. All additions were made using a Multidrop Combi dispenser (Thermo Fisher Scientific).
Quenched assay plates were transferred to a high-throughput RapidFire200 integrated autosampler/solid-phase extraction (SPE) system (Agilent Technologies, Wakefield, Mass.).

T1 sequence (O15229 whole entry): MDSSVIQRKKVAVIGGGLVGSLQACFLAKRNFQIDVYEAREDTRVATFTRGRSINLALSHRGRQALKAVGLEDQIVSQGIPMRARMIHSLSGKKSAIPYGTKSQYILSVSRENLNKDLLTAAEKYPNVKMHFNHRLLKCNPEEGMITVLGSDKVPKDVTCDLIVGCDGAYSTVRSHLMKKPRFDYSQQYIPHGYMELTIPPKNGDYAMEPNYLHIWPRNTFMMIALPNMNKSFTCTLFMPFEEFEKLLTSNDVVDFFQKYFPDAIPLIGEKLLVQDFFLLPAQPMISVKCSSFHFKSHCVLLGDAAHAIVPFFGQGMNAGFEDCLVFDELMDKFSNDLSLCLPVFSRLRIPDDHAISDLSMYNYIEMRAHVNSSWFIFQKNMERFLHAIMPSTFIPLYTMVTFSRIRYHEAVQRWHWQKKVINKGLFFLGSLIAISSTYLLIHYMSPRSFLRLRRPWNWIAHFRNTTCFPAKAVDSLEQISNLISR

Structure (SMILES) | median pIC50
Cc1ccc([C@@H](C)Oc2cc3onc(CCC(=O)O)c3cc2Cl)nn1 [Example 20, (R)-3-(5-chloro-6-(1-(6-methylpyridazin-3-yl)ethoxy)benzo[d]isoxazol-3-yl)propanoic acid] | 8.7

same assay, conditions: in at least one of the MS Rapidfire assays (Method 1 or 2); isolated human KMO-membranes, 10 μM Kynurenine, 200 μM NADPH; values exemplary only; read-out: median pIC50 (converted)

Structure (SMILES) | IC50
O=C(O)CCc1noc2cc(OCc3cccnn3)c(Cl)cc12 [Example 13, 3-(5-chloro-6-(pyridazin-3-ylmethoxy)benzo[d]isoxazol-3-yl)propanoic acid] | ≤ 10 nM
CCc1cccc(C(C)Oc2cc3onc(CCC(=O)O)c3cc2Cl)n1 (single isomer, unassigned) [Example 31, 3-{5-Chloro-6-[1-(6-ethylpyridin-2-yl)ethoxy]-1,2-benzoxazol-3-yl}propanoic acid] | 10 nM
CCC(Oc1cc2onc(CCC(=O)O)c2cc1Cl)c1ncc(C)cn1 (single isomer, unassigned) [Example 49, 3-{5-Chloro-6-[1-(5-methylpyrimidin-2-yl)propoxy]-1,2-benzoxazol-3-yl}propanoic acid] | 10 nM
CCC(Oc1cc2onc(CCC(=O)O)c2cc1Cl)c1ccc(C)cn1 (single isomer, unassigned) [Example 23, 3-(5-chloro-6-(1-(5-methylpyridin-2-yl)propoxy)benzo[d]isoxazol-3-yl)propanoic acid] | ≤ 10 nM
CC(Oc1cc2onc(CCC(=O)O)c2cc1Cl)c1cccnn1 (single isomer, unassigned) [Example 22, 3-(5-chloro-6-(1-(pyridazin-3-yl)ethoxy)benzo[d]isoxazol-3-yl)propanoic acid] | ≤ 10 nM
CCC(Oc1cc2onc(CCC(=O)O)c2cc1Cl)c1ccc(C)nn1 (single isomer, unassigned) [Example 47, 3-{5-Chloro-6-[1-(6-methylpyridazin-3-yl)propoxy]-1,2-benzoxazol-3-yl}propanoic acid] | 10 nM
Cc1cnc(C(C)Oc2cc3onc(CCC(=O)O)c3cc2Cl)nc1 (single isomer, unassigned) [Example 39, 3-{5-Chloro-6-[1-(5-methylpyrimidin-2-yl)ethoxy]-1,2-benzoxazol-3-yl}propanoic acid] | 10 nM
Cc1ccc([C@@H](C)Oc2cc3onc(CCC(=O)O)c3cc2Cl)nn1 [Example 20, (R)-3-(5-chloro-6-(1-(6-methylpyridazin-3-yl)ethoxy)benzo[d]isoxazol-3-yl)propanoic acid] | ≤ 10 nM
CCC(Oc1cc2onc(CCC(=O)O)c2cc1Cl)c1ncc(Cl)cn1 (single isomer, unassigned) [Example 51, 3-{5-Chloro-6-[1-(5-chloropyrimidin-2-yl)propoxy]-1,2-benzoxazol-3-yl}propanoic acid] | 10 nM
CCc1coc(C(C)Oc2cc3onc(CCC(=O)O)c3cc2Cl)n1 (single isomer, unassigned) [Example 41, 3-{5-Chloro-6-[1-(4-ethyl-1,3-oxazol-2-yl)ethoxy]-1,2-benzoxazol-3-yl}propanoic acid] | 10 nM
CCc1ccc(C(C)Oc2cc3onc(CCC(=O)O)c3cc2Cl)nc1 (single isomer, unassigned) [Example 29, 3-{5-Chloro-6-[1-(5-ethylpyridin-2-yl)ethoxy]-1,2-benzoxazol-3-yl}propanoic acid] | 10 nM
CC[C@H](Oc1cc2onc(CCC(=O)O)c2cc1Cl)c1ncccn1 (single isomer, unassigned) [Example 43] | 10 nM
CCC(Oc1cc2onc(CCC(=O)O)c2cc1Cl)c1ccc(Cl)cn1 (single isomer, unassigned) [Example 27, 3-(5-chloro-6-(1-(5-chloropyridin-2-yl)propoxy)benzo[d]isoxazol-3-yl)propanoic acid] | ≤ 10 nM
CCC(Oc1cc2onc(CCC(=O)O)c2cc1Cl)c1cccnn1 (single isomer, unassigned) [Example 46, 3-{5-Chloro-6-[1-(pyridazin-3-yl)propoxy]-1,2-benzoxazol-3-yl}propanoic acid] | 10 nM
CCC(Oc1cc2onc(CCC(=O)O)c2cc1Cl)c1ccccn1 (single isomer, unassigned) [Example 25, 3-(5-chloro-6-(1-(pyridin-2-yl)propoxy)benzo[d]isoxazol-3-yl)propanoic acid] | ≤ 10 nM and 3.98 nM
CC(Oc1cc2onc(CCC(=O)O)c2cc1Cl)c1ncc(Cl)cn1 (single isomer, unassigned) [Example 37, 3-{5-Chloro-6-[1-(5-chloropyrimidin-2-yl)ethoxy]-1,2-benzoxazol-3-yl}propanoic acid] | 10 nM
O=C(O)CCc1noc2cc(OCc3ccc(Cl)cn3)c(Cl)cc12 [Example 7, 2-amino-2-(hydroxymethyl)propane-1,3-diol 3-(5-chloro-6-((5-chloropyridin-2-yl)methoxy)benzo[d]isoxazol-3-yl)propanoate] | 2.51 nM
O=C(O)CCc1noc2cc(OCc3ccccn3)c(Cl)cc12 [Example 2, 2-amino-2-(hydroxymethyl)propane-1,3-diol 3-(5-chloro-6-(pyridin-2-ylmethoxy)benzo[d]isoxazol-3-yl)propanoate] | ≤ 10 nM
Cc1ncc(C(C)Oc2cc3onc(CCC(=O)O)c3cc2Cl)o1 (single isomer, unassigned) [Example 35, 3-{5-Chloro-6-[1-(2-methyl-1,3-oxazol-5-yl)ethoxy]-1,2-benzoxazol-3-yl}propanoic acid] | 10 nM
